Tests used:
cardiomyocytes = experiment: Ca sparks, Ca waves and contractions in cardiomyocytes; assay type: cell-based
tre^tc318 mutant embryos = experiment: Compound rescue screen: restoration of persistent heartbeat in tremblor embryos; assay type: in vivo, Zebrafish; conditions: for responders at 10 µM / responders at 15 µM / responders at 20 µM: Danio rerio, 48 h; for responders at 10 µM: read-out: Rescue at 10 uM (%); for responders at 15 µM: read-out: Rescue at 15 uM (%); for responders at 20 µM: read-out: Rescue at 20 uM (%); for Rescue at 10 uM (%): 10 uM from 30 hpf
Method: Zebrafish of the mutant line tremblor (tre^tc318) were maintained and bred as described previously in the literature. C. f. Langenbacher A D, et al., PNAS, 2005, 102(49), 17699-17704.
Exemplary compounds were screened for their ability to partially or completely restore persistent heartbeat in tre^tc318 embryos. 10 tre^tc318 mutant embryos were placed in each well of a 24-well plate and raised in the presence of individual compounds at various concentrations (5, 10, 15 and 20 μM) from 30 hpf. Cardiac function was analyzed by visual inspection at 2 dpf. The hearts of tre^tc318 embryos manifest a chaotic movement resembling cardiac fibrillation with sporadic contractions. Compounds that elicited persistent coordinated cardiac contractions were validated by rescreening at least once on another 10 tre^tc318 mutant embryos.

[1] = Metabolic stability in vivo
VDAC2 = experiment: Binding of efsevin to VDAC2
[2] = cardiac function by visual inspection at 2 dpf, 10 embryos per well

Row | SMILES | responders at 10 µM (tre^tc318 mutant embryos) [%] | responders at 15 µM (tre^tc318 mutant embryos) [%] | also measured
1 | CCOC(=O)C1=CCN(S(=O)(=O)c2ccc(C)cc2)C1c1ccccc1 (stereo not drawn) [FS001, efsevin, reference compound] | 58 | 80 | effect on Ca overload-induced Ca waves and contractions (cardiomyocytes): inhibits Ca+overload-induced erratic Ca^+ waves and irregular contractions; responders at 20 µM (tre^tc318 mutant embryos): 45%; activity to restore coordinated contractions in tremblor (tre^tc318 mutant embryos; chemical suppressor screen on zebrafish tremblor embryos): potent activity to restore coordinated contractions in tremblor; metabolic stability in vivo [1]: poor metabolic stability in vivo; binding to VDAC2 (VDAC2): bind to VDAC2
2 | CCOC(=O)C1=CCN(S(=O)(=O)c2ccccc2C(=O)OC)C1c1ccc(C)cc1 (stereo not drawn) [FS076] | 40 | 60 | responders at 20 µM (tre^tc318 mutant embryos): 10%
3 | CCOC(=O)C1=CCN(S(=O)(=O)c2ccc(C)cc2)C1c1ccc2c(c1)OCO2 (stereo not drawn) [FS059] | 20 |  | 
4 | CCOC(=O)C1=CCN(S(=O)(=O)c2ccccc2Br)C1c1cccc(Br)c1 (stereo not drawn) [FS031] | 0 |  | 
5 | CCOC(=O)C1=CCN(S(=O)(=O)c2ccccc2)C1c1ccc(C)cc1 (stereo not drawn) [FS077] |  |  | Rescue at 10 uM (%) (tre^tc318 mutant embryos; [2]): 30%
6 | CCOC(=O)C1=CCN(S(=O)(=O)c2ccc(C)cc2)C1c1cccc(Br)c1 (stereo not drawn) [FS067] |  |  | Rescue at 10 uM (%) (tre^tc318 mutant embryos; [2]): 20%
7 | CCOC(=O)C1=CCN(S(=O)(=O)c2ccc(Br)cc2)C1c1ccc(C)cc1 (stereo not drawn) [FS102] | 0 |  | 
8 | CCOC(=O)C1=CCN(S(=O)(=O)c2ccccc2C)C1c1cccc(C)c1 (stereo not drawn) [FS025] | 0 |  | 
9 | CCOC(=O)C1=CCN(S(=O)(=O)c2cccc(Cl)c2)C1c1cccc(F)c1 (stereo not drawn) [FS121] |  | 56 | 
10 | CCOC(=O)C1=CCN(S(=O)(=O)c2ccc(Cl)cc2)C1c1cccc(Cl)c1 (stereo not drawn) [FS088] | 0 |  | 
11 | CCOC(=O)C1=CCN(S(=O)(=O)c2ccccc2C)C1c1cccc(Br)c1 (stereo not drawn) [FS021] | 10 |  | 
12 | CCOC(=O)C1=CCN(S(=O)(=O)c2ccc(C)cc2)C1c1ccc(C(C)C)cc1 (stereo not drawn) [FS070] |  |  | Rescue at 10 uM (%) (tre^tc318 mutant embryos; [2]): 0%
13 | CCOC(=O)C1=CCN(S(=O)(=O)c2ccc(Cl)cc2)C1c1cccc(C)c1 (stereo not drawn) [FS091] | 0 |  | 
14 | CCOC(=O)C1=CCN(S(=O)(=O)c2ccccc2C)C1c1ccccc1 (stereo not drawn) [FS053] | 0 |  | 
15 | CCOC(=O)C1=CCN(S(=O)(=O)c2ccc(F)cc2)C1c1ccc(Cl)cc1 (stereo not drawn) [FS123] |  | 70 | 
16 | CCOC(=O)C1=CCN(S(=O)(=O)c2ccc(C)cc2)C1c1ccc(C)cc1 (stereo not drawn) [FS057] |  |  | Rescue at 10 uM (%) (tre^tc318 mutant embryos; [2]): 60%; Rescue at 15 uM (%) (tre^tc318 mutant embryos; 15 uM from 30 hpf, cardiac function by visual inspection at 2 dpf, 10 embryos per well): 70%; Rescue at 20 uM (%) (tre^tc318 mutant embryos; 20 uM from 30 hpf, cardiac function by visual inspection at 2 dpf, 10 embryos per well): 60%
17 | CCOC(=O)C1=CCN(S(=O)(=O)c2ccccc2C)C1c1ccc(Cl)cc1 (stereo not drawn) [FS017] | 25 | 60 | responders at 20 µM (tre^tc318 mutant embryos): 20%
18 | CCOC(=O)C1=CCN(S(=O)(=O)c2ccccc2F)C1c1ccc(Cl)c(Cl)c1 (stereo not drawn) [FS034] | 65 | 30 | responders at 20 µM (tre^tc318 mutant embryos): 20%
19 | CCOC(=O)C1=CCN(S(=O)(=O)c2ccccc2Br)C1c1ccccc1 (stereo not drawn) [FS055] | 0 |  | 
20 | CCOC(=O)C1=CCN(S(=O)(=O)c2ccc(C)cc2)C1c1ccc(C#N)cc1 (stereo not drawn) [FS060] | 80 | 60 | responders at 20 µM (tre^tc318 mutant embryos): 0%
21 | CCOC(=O)C1=CCN(S(=O)(=O)c2ccccc2Br)C1c1ccc(Br)cc1 (stereo not drawn) [FS046] | 60 | 10 | responders at 20 µM (tre^tc318 mutant embryos): 10%

— US12729181B2, “Compounds, compositions, and methods for modulating calcium ion homeostasis” (The Regents of the University of California, priority 2020, dated 2026)
